What follows are molecules tested on Periplaneta americana (assay: Insecticidal activity against Periplaneta americana (American cockroach) assessed as neuroblocking concentration).
Type: functional

| SMILES | log(1/BC) |
| --- | --- |
| COC(=O)c1cc(CN2CCN/C2=N\[N+](=O)[O-])cnc1Cl | 3.92 |
| N#Cc1cc(CN2CCN/C2=N\[N+](=O)[O-])cnc1Cl | 4.59 |
| COc1cc(CN2CCN/C2=N\[N+](=O)[O-])cnc1Cl | 4.98 |
| O=[N+]([O-])/N=C1/NCCN1Cc1cnc(Cl)c(F)c1 [5-FLUOROIMIDACLOPRID] | 5.99 |
| O=[N+]([O-])/N=C1\NCCN1Cc1cnc(Cl)c(C(F)(F)F)c1 | 4.43 |
| CCc1cc(CN2CCN/C2=N\[N+](=O)[O-])cnc1Cl | 4.66 |
| Cc1cc(CN2CCN/C2=N\[N+](=O)[O-])cnc1Cl | 5.25 |
| O=[N+]([O-])/N=C1\NCCN1Cc1ccc(Cl)nc1 [IMIDACLOPRID] | 5.7 |
| O=[N+]([O-])/N=C1\NCCN1Cc1cnc(Cl)c([N+](=O)[O-])c1 | 3.6 |
| CCCCc1cc(CN2CCN/C2=N\[N+](=O)[O-])cnc1Cl | 3.79 |
| CCCc1cc(CN2CCN/C2=N\[N+](=O)[O-])cnc1Cl | 4.51 |
| CCCCOc1cc(CN2CCN/C2=N\[N+](=O)[O-])cnc1Cl | 4.58 |
| O=[N+]([O-])/N=C1\NCCN1Cc1cnc(Cl)c(Cl)c1 [5-CHLOROIMIDACLOPRID] | 5.61 |
| CCOc1cc(CN2CCN/C2=N\[N+](=O)[O-])cnc1Cl | 4.66 |
| CCCOc1cc(CN2CCN/C2=N\[N+](=O)[O-])cnc1Cl | 4.56 |
| [N-]=[N+]=Nc1cc(CN2CCN/C2=N\[N+](=O)[O-])cnc1Cl [5-AZIDOIMIDACLOPRID] | 4.98 |
| O=[N+]([O-])/N=C1\NCCN1Cc1cnc(Cl)c(Br)c1 | 5.51 |
| O=[N+]([O-])/N=C1\NCCN1Cc1cnc(Cl)c(I)c1 | 5.3 |
| CCCCCOc1cc(CN2CCN/C2=N\[N+](=O)[O-])cnc1Cl | 3.59 |
| O=[N+]([O-])/N=C1\NCCN1Cc1cnc(Cl)c(-c2ccccc2)c1 | 4.46 |
| CC(C)Oc1cc(CN2CCN/C2=N\[N+](=O)[O-])cnc1Cl | 4.46 |

Source: ChEMBL document CHEMBL3044607, “Quantitative structureactivity relationships of imidacloprid and its analogs with substituents at the C5 position on the pyridine ring in the neuroblocking activity” (J Pestic Sci, 2006)
